# Experimental data from ChEMBL document CHEMBL4765468, “Development of Novel Tetrahydroquinoline Inhibitors of NLRP3 Inflammasome for Potential Treatment of DSS-Induced Mouse Colitis” (J Med Chem, 2021).
# Experiments:
# THP-1 = assay: Cytotoxicity in human THP-1 cells assessed as reduction in cell viability incubated for 72 hrs by MTT assay; format: cell-based; conditions: THP-1, 72 h
# [1] = target: NACHT, LRR and PYD domains-containing protein 3 (Homo sapiens, UniProt Q96P20); assay: Inhibition of NLRP3 in PMA-stimulated human THP-1 cells assessed as reduction in IL-1beta release pre-treated for 24 hrs followed by stimulation with LPS for 3 hrs and ATP for 1 hr by ELISA analysis; format: cell-based
# Sequence of NACHT, LRR and PYD domains-containing protein 3 (Q96P20 whole entry, the tested form may be a part): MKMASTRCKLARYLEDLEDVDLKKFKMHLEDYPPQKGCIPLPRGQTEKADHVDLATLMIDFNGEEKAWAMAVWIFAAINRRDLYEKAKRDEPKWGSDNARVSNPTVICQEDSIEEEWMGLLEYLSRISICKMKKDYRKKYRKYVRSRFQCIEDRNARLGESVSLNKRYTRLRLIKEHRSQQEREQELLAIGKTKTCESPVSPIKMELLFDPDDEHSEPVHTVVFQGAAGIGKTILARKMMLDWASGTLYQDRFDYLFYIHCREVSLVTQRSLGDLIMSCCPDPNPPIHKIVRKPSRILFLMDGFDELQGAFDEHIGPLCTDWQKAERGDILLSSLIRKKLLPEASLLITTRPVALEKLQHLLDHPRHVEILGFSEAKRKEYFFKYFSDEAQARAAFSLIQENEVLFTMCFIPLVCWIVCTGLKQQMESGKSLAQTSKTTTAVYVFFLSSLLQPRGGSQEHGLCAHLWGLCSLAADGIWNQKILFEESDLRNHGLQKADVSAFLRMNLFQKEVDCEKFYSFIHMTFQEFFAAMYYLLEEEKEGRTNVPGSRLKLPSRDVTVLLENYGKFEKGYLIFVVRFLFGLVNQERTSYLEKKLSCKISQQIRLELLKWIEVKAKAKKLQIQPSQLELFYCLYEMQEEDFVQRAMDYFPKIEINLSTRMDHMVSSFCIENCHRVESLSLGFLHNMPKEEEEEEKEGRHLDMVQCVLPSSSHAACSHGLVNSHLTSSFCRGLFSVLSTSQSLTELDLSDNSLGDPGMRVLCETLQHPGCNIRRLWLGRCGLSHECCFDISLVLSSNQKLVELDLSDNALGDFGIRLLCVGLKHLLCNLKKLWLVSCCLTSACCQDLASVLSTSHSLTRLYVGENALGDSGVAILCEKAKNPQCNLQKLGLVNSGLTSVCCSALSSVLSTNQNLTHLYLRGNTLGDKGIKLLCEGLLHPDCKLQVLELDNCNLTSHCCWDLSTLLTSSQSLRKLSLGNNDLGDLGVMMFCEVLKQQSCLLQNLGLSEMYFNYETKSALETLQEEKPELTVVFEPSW
IC50 [1] [µM],SMILES,IC50 (THP-1) [µM]
,CC(C)(O)c1coc(S(=O)(=O)NC(=O)Nc2c3c(cc4c2CCC4)CCC3)c1,98.8
,CS(=O)(=O)N1CCCc2ccc(N(S(C)(=O)=O)S(C)(=O)=O)cc21,> 100
,CS(=O)(=O)N1CCCc2ccc(N(S(=O)(=O)c3ccc(F)cc3)S(=O)(=O)c3ccc(F)cc3)cc21,> 100
,CS(=O)(=O)N1CCCc2ccc(N(S(=O)(=O)c3cccc(F)c3)S(=O)(=O)c3cccc(F)c3)cc21,71.8
,CS(=O)(=O)N1CCCc2ccc(N(S(=O)(=O)c3ccc(C(F)(F)F)cc3)S(=O)(=O)c3ccc(C(F)(F)F)cc3)cc21,8.32
,CCCS(=O)(=O)N(c1ccc2c(c1)N(S(C)(=O)=O)CCC2)S(=O)(=O)CCC,98.8
,CS(=O)(=O)N1CCCc2ccc(N(S(=O)(=O)CCN3C(=O)c4ccccc4C3=O)S(=O)(=O)CCN3C(=O)c4ccccc4C3=O)cc21,> 100
,CS(=O)(=O)N1CCCc2ccc(N(S(=O)(=O)c3ccccc3F)S(=O)(=O)c3ccccc3F)cc21,> 100
,CS(=O)(=O)N1CCCc2ccc(N(S(=O)(=O)c3cccc4ccccc34)S(=O)(=O)c3cccc4ccccc34)cc21,> 100
,CS(=O)(=O)N1CCCc2ccc(N(S(=O)(=O)c3ccc(Br)cc3)S(=O)(=O)c3ccc(Br)cc3)cc21,66.6
,COC(=O)c1ccc(S(=O)(=O)N(c2ccc3c(c2)N(S(C)(=O)=O)CCC3)S(=O)(=O)c2ccc(C(=O)OC)cc2)cc1,> 100
,Cc1ccc(S(=O)(=O)N(c2ccc3c(c2)N(S(C)(=O)=O)CCC3)S(=O)(=O)c2ccc(C)cc2)cc1,78.4
,CCS(=O)(=O)N(c1ccc2c(c1)N(S(C)(=O)=O)CCC2)S(=O)(=O)CC,> 100
,CS(=O)(=O)N1CCCc2ccc(N(S(=O)(=O)c3ccc(C#N)cc3)S(=O)(=O)c3ccc(C#N)cc3)cc21,35.9
,CS(=O)(=O)N1CCCc2ccc(N(S(=O)(=O)c3cc(C(F)(F)F)cc(C(F)(F)F)c3)S(=O)(=O)c3cc(C(F)(F)F)cc(C(F)(F)F)c3)cc21,34.7
,CS(=O)(=O)N1CCCc2ccc(N(S(=O)(=O)Cc3ccccc3)S(=O)(=O)Cc3ccccc3)cc21,> 100
,CC(=O)Nc1ccc(S(=O)(=O)N(c2ccc3c(c2)N(S(C)(=O)=O)CCC3)S(=O)(=O)c2ccc(NC(C)=O)cc2)cc1,> 100
,COc1ccc(S(=O)(=O)N(c2ccc3c(c2)N(S(C)(=O)=O)CCC3)S(=O)(=O)c2ccc(OC)cc2)cc1,90.9
,CS(=O)(=O)N1CCCc2ccc(N(S(=O)(=O)c3ccc4ccccc4c3)S(=O)(=O)c3ccc4ccccc4c3)cc21,97.2
,CS(=O)(=O)N1CCCc2ccc(N(S(=O)(=O)c3ccc(-c4ccccc4)cc3)S(=O)(=O)c3ccc(-c4ccccc4)cc3)cc21,> 100
,CS(=O)(=O)N1CCCc2ccc(N(S(=O)(=O)c3ccccc3)S(=O)(=O)c3ccccc3)cc21,> 100
,CS(=O)(=O)N1CCCc2ccc(N(S(=O)(=O)c3ccc(Cl)cc3)S(=O)(=O)c3ccc(Cl)cc3)cc21,> 100
13.7,CS(=O)(=O)N1CCCc2ccc(N(S(=O)(=O)c3ccccc3[N+](=O)[O-])S(=O)(=O)c3ccccc3[N+](=O)[O-])cc21,> 100
,CS(=O)(=O)N1CCCc2ccc(N(S(=O)(=O)c3cccnc3)S(=O)(=O)c3cccnc3)cc21,71.1
,CS(=O)(=O)N1CCCc2ccc(N(S(=O)(=O)c3cccs3)S(=O)(=O)c3cccs3)cc21,> 100
,CCCCS(=O)(=O)N(c1ccc2c(c1)N(S(C)(=O)=O)CCC2)S(=O)(=O)CCCC,95.5
,CS(=O)(=O)N1CCCc2ccc(N(S(=O)(=O)c3ccc([N+](=O)[O-])cc3)S(=O)(=O)c3ccc([N+](=O)[O-])cc3)cc21,65.3
